Reference: patent publication US11207301B2, “Sphingosine 1 phosphate receptor agonists for neuroprotection” (RECEPTOS LLC, priority 2017, dated 2021)

Assays:
Type in all cases: cell-based
[1] = test system: AKT phosphorylation in primary rat astrocytes; assay: AKT phosphorylation in primary rat astrocytes (MSD pAKT assay); details: 10-minute exposure, mean of n=4
Procedure: (§1) For the experiments using rat primary astrocytes, eight-point concentration-response curves were generated for AKT and ERK phosphorylation in primary rat astrocytes cultures in response to a 10-minute treatment with ozanimod (100 nM-46 pM), Compound 3 (10 nM-5 pM), Compound 1 (10 nM-5 pM), or FTY720-P (10 nM-5 pM). Phosphorylation of AKT and ERK was quantified using Meso Scale Discovery assay kits (MSD Mutli-Spot Phopho-AKT (Ser473) Assay Kit and MSD Multi-Spot MAP Kinase Phosphoprotein Assay Whole Cell Lysate Kit) and imaging platform. AKT and ERK phosphorylation within treated astrocytes were assessed as the mean change in signal intensity compared to DMSO vehicle and the half maximal effective concentration (EC50) was determined using non-linear regression.
(§2) Embryonic day18 (E18) rat cortices were purchased from BrainBits LLC. (Springfield, Ill.) and were cultured according to the supplier's protocol. Briefly, cortices were incubated at 37° C. for 10 minutes in activated papain solution before trituration in hibernation medium containing B27 supplement using a modified siliconized glass Pasteur pipette. The cell suspension was centrifuged at 1100×g for 1 minute at room temperature (RT). The cell pellet was then resuspended in NbAstro medium (BrainBits LLC.) and the live cell density was assessed using a cell counter. Primary cells were plated at a density of 7500 cells/cm2 in T75 tissue culture flasks coated with poly-D-lysine (PDL) in a total volume of 12 mL of NbAstro media, and incubated for 10-14 days at 37° C. 5% CO2. After 10-14 days, primary astrocytes in passage 0 (P0) that had reached confluency in the T75 flasks were detached using TrypLE detachment reagent, pelleted at 300×g, and plated into poly-d-lysine coated T225 flasks in 20 mL of NbAstro media, and incubated for another 7 days at 37° C. 5% CO2. After 7 days, primary P1 astrocytes in confluent T225 flasks were detached using TrypLE detachment reagent, pelleted at 300×g, and plated intopoly-d-lysine coated 96-well plates at 10,000 cells per well in 200 μL of NbAstro media, and incubated for 7 days at 37° C. 5% CO2. After 7 days, P2 primary astrocytes were utilized for pAKT and pERK assays.
(§3) The pAKT (phosphorylated AKT) assay was performed according to the manufacturer's protocol. Briefly, MSD pAKT plates were blocked for 1-2 hours by adding 150 μL of blocker A prepared in 1× Tris wash buffer. […] Following antibody incubation, plates were washed three times with 150 μL of 1× Tris wash buffer and 1× read buffer (150 μL/well) was added. Finally, plates were read in the MSD imager platform to assess pAKT levels.
(§4) AKT and ERK phosphorylation data were analyzed by non-linear regression (GraphPad Prism, version 6) to determine the EC50 values.

[2] = test system: ERK phosphorylation in primary rat astrocytes; assay: ERK phosphorylation in primary rat astrocytes (MSD pERK assay); details: 10-minute exposure, mean of n=3
Procedure: as §1, §2
as §3, with “The pERK” for “The pAKT”, “(phosphorylated ERK)/pMAPkinase” for “(phosphorylated AKT)”, “MSD pERK/pMAPkinase” for “MSD pAKT”, “Finally, the” for “Finally,”, “assess the pERK” for “assess pAKT”
as §4

[3] = test system: AKT phosphorylation in primary mouse astrocytes; assay: AKT phosphorylation in primary mouse cortical astrocytes (AlphaLISA SureFire Ultra); details: 10-minute exposure, mean of n=3
Procedure: (§5) For the experiments using mouse and human primary astrocytes, ten-point concentration-response curves (90 nM-4.57 pM or 30 nM-1.52 pM) were generated for AKT and/or ERK phosphorylation in primary human and mouse cortical astrocytic cultures in response to a 10-minute treatment with ozanimod, Compound 3, Compound 1, or FTY720-P. AKT and ERK phosphorylation were quantified using AlphaLISA SureFire Ultra Assay kits and the EnVision Plate Reader. AKT and ERK phosphorylation within treated astrocytes were expressed as the mean change in signal intensity compared to the dimethyl sulfoxide (DMSO) vehicle and the half maximal effective concentration (EC50) was determined using non-linear regression.
(§6) Timed pregnant (E16) C57BL/6J female mice arrive to the test facility on a weekly basis and were housed and cared for according to appropriate protocols for this model. Primary mouse cortical astrocytes are harvested from P0-P2 pups. The newly born animals were deeply anesthetized on ice, decapitated, and the brains were rapidly removed and stored in ice-cold NbAstro media (BrainBits, LLC). Cells were dissociated from freshly dissected cortices by mechanical disruption in the presence of trypsin and DNase. Cells were put into a PDL coated T75 tissue culture flask containing 16 mL NbAstro Media and incubated at 37° C. 5% CO2. Once the mouse astrocytes had reached confluency in the T75 flask, they were detached using TripLE detachment reagent, pelleted at 300×g, expanded into two T225 PDL coated tissue culture flasks containing 40 mL of NbAstro and incubated at 37° C. 5% CO2. Once the astrocytes reached confluency in the T225 flasks they were detached using TrypLE detachment reagent, pelleted at 300×g, plated into PDL coated 96-well plates at a density of 10,000 cells per well in 200 μL NbAstro and incubated at 37° C. 5% CO2. Half of the media was replenished every 3-4 days. After 5-7 days of incubation, the P2 mouse astrocyte plates were utilized for the pERK and pAKT assays.
Cell lysis and detection of pAKT were performed according to the PerkinElmer AlphaLISA SureFire Ultra pAKT1/2/3 ([…]) assay protocol. Astrocytes were lysed in the 96-well plate following a 10 minute incubation with compounds with shaking at room temperature (RT). The astrocytic lysates (10 μL/well) were transferred into a 384-well OptiPlate. As specified by the assay protocol, an acceptor bead mix and a donor bead mix (5 μL/well for each) were added to the plate under subdued light. […] The plates were read on the EnVision Plate Reader to assess the pAKT levels.
(§7) The AKT and ERK phosphorylation data, collected by a Perkin Elmer EnVision Microplate Reader, was analyzed by non-linear regression (GraphPad Prism, version 7.03) to determine the EC50 values.

[4] = test system: ERK phosphorylation in primary mouse astrocytes; assay: ERK phosphorylation in primary mouse cortical astrocytes (AlphaLISA SureFire Ultra); details: 10-minute exposure
Procedure: as §5
as §6, with “Once the astrocytes reached confluency in the T225 flasks they were detached using TrypLE detachment reagent, pelleted at 300×g, plated into PDL coated 96-well plates at a density of 10,000 cells per well in 200 μL NbAstro and incubated at 37° C. 5% CO2. Half of the media was replenished every 3-4 days. After 5-7 days of incubation, the P2 mouse astrocyte plates were utilized for the pERK and pAKT assays.” left out
Cell lysis and detection of pERK were performed according to the PerkinElmer AlphaLISA SureFire Ultra p-ERK1/2 (Thr202/TYR 204) assay protocol. […] The plates were read on the EnVision Plate Reader to assess the pERK levels.
as §7

[5] = test system: ERK phosphorylation in primary human astrocytes; assay: ERK phosphorylation in primary human cortical astrocytes (AlphaLISA SureFire Ultra); details: 10-minute exposure, n=3-5
Procedure: as §5
Primary human astrocytes were purchased from ScienCell Research Laboratories, Inc. and cultured according to the supplier's protocol. The astrocytes were obtained from the human cerebral cortex, cryopreserved at passage one, and delivered frozen. The frozen vials of cells were gently thawed in a 37° C. water bath. Once the contents of the vial were completely thawed, the cell solution was dispensed into a poly-L-lysine (PLL) coated T75 tissue culture flask with 16 mL of human Astrocyte Media, (ScienCell Research Laboratories, Inc.) and incubated at 37° C. 5% CO2. Once the human astrocytes had reached confluency in the T75 flask, they were detached using trypsin/EDTA 0.25%, pelleted at 300×g, split into two PLL coated T225 tissue culture flasks in 40 mL of astrocyte media, and incubated at 37° C. 5% CO2. Once the astrocytes reached confluency in the T225 flasks, they were detached using trypsin/EDTA 0.25% solution, pelleted at 300×g, plated into poly-D-lysine (PDL) coated 96-well plates at a density of 10,000 cells per well in 200 μL human Astrocyte Media, and incubated at 37° C. 5% CO2. Half of the media was replenished every 3-4 days. After 5-7 days of incubation, the P2 human astrocyte plates were utilized for the pERK and pAKT assays.
Cell lysis and detection of pERK were performed according to the PerkinElmer AlphaLISA SureFire Ultra p-ERK1/2 (Thr202/TYR 204) assay protocol. Astrocytes were lysed in the 96-well plate following a 10 minute incubation with compounds with shaking at RT. The astrocytic lysates (10 μL/well) were transferred into a 384-well OptiPlate. As specified by the assay protocol, an acceptor bead mix and a donor bead mix (5 μL/well for each) were added to the plate under subdued light. Plates were sealed with adhesive plate seals and incubated in the dark for 2 hours at RT. The plates were read on the EnVision Plate Reader to assess the pERK levels.
as §7

EC50 [1]: 0.17 nM
EC50 [2]: 0.16 nM
EC50 [3]: 0.09 nM
EC50 [4]: 0.14 nM
EC50 [5]: 0.73 nM
SMILES: CCCCCCCCc1ccc(CC[C@](N)(CO)COP(=O)(O)O)cc1 [FTY720-P, reference compound]
